The source of these data is patent US6855801B1, “Peptides modulating activities of heparin other glycosaminoglycans or proteoglycans” (Thomas Jefferson University, priority 1999, dated 2005).

The test system of test [1] is unfractionated heparin. The test is described as follows: Reversal of anti-thrombin effects of unfractionated heparin in vitro (thrombin clotting time in plasma). The format is biochemical, human. Particulars: heparin 0.5 U/ml; thrombin standardized to clotting time 20-22 seconds. Here is the method:
Plasma was obtained from normal donors. Thrombin concentration (human alpha thrombin, Enzyme Research Laboratories, South Bend, Ind.) was standardized to produce a clotting time of 20-22 seconds. Heparin was added at 0.5 IU anti-thrombin activity/ml. The clotting time for heparin alone was approximately 3 minutes. To test the effects of the peptides in this system, one minute after addition of heparin to the plasma, the peptides were added in concentrations ranging from 1-200 μg/ml. After one minute, thrombin was added and the clotting time determined. The effects of the peptides were concentration dependent. The clotting time was restored to normal values in all samples at the dosages shown below in Table III. The ability of the peptides to neutralize heparin inhibition of thrombin clotting time was consistent with the binding affinities shown in Table I, and with the effectiveness against low molecular weight heparin anti-Factor Xa activity in Table II.

For a further test, the system named is Lovenox. Briefly: Reversal of anti-Factor Xa activity in vitro (Stachrom Heparin chromogenic assay), Lovenox. It counts as biochemical, human. The settings on record: 0.5 U/ml anti-Factor Xa activity. The method, then:
(§1) Solutions of Lovenox, Orgaran, or unfractionated heparin (Sigma) were prepared in 0.32% sodium citrate or in normal human plasma to contain 0.5 U/ml anti-FXa activity. Calibrations were made against the standards provided by the Stachrom Heparin (Diagnostica Stago) assay kit. The heparin/ATIII complex was allowed to form at 37° C. for 2 minutes, peptide was added, the mixture was incubated for an additional 1-5 minutes, and then Factor Xa was added, and finally the color reagent, for one minute, and the absorbance was read at 405 nm. The increase in absorbance from the heparinized control to the test sample was divided by the difference in A405 between the heparinized control and the control without heparin to obtain the % reversal.

Test [2] in a line: Affinity coelectrophoresis (ACE) of radiolabeled heparin through peptides. It counts as binding, pig. Particulars: for heparin-binding affinity in words: ACE, low Mr heparin. From the text: Preparation of Radiolabeled Heparin—Whole heparin from pig intestinal mucosa (Sigma) was tyramine end-labeled and radiolabeled with Na^125I (Amersham, Pharmacia Biotech, Inc., Piscataway, N.J.) to an average specific activity ≅1.0×10^7 CPM/μg as described^59. Radiolabeled heparin was fractionated on Sephadex G-100 (Bio-Rad Laboratories, Hercules, Calif.) and the final ≅12% of material to elute was retained as the low Mr material of ≦6,000 (Jordan, R., D. Beeler, and R. Rosenberg, J Biol Chem, 254:2902-2913, 1979; Laurent, T. C., et al., Biochem J, 175:691-701, 1978).
Briefly, peptides were dissolved in 1×ACE running buffer, 50 mM sodium 3-(N-morpholino)-2-hydroxypropanesulfonate (MOPSO, Sigma)/125 mM sodium acetate, pH 7.0, and serially diluted in running buffer at 2× concentrations. Peptides were then mixed 1:1 with 2% agarose/1% CHAPS, 3-[(3-cholamidopropyl)dimethylammonio]-1-propanesulfonate, (Boehringer Mannheim, Indianapolis, Ind.), and loaded into wells of a 1% agarose gel. Radiolabeled heparin or HUVEC PGs were then loaded in a slot on the […] side of the gel, and electrophoresed through the peptide-containing wells, towards the cathode. Gels were dried and PG mobility was measured with a Phosphorimager (Molecular Dynamics, Sunnyvale, Calif.) by scanning each protein lane and determining the relative radioactivity content per. 88-μm pixel through the length of the lane. Retardation coefficient (R) measurements, binding isotherm curve fittings, and apparent Kd value determinations were calculated as detailed previously (Lee, M. K., and A. D. Lander, Proc Nat Acad Sci USA, 88:2768-2772, 1991; San Antonio, J. D., et al, Biochem, 32:47464755, 1993).
Some peptides were also analyzed by ACE for heparin-binding under reducing conditions. Thus, after serial peptide dilution, β-mercaptoethanol (β-ME) was added at 5% to each peptide sample, and these were mixed 1:1 with 2% agarose/1% CHAPS/5% β-ME, and added to the ACE gel sample wells as usual.

The subject of the next test is Orgaran. The test is described as follows: Reversal of anti-Factor Xa activity in vitro (Stachrom Heparin chromogenic assay), Orgaran. The format is biochemical, human. The settings on record: 0.5 U/ml anti-Factor Xa activity. Here is the method:
as §1

Test [3] deals with unfractionated heparin. Briefly: Reversal of anti-Factor Xa activity in vitro (Stachrom Heparin chromogenic assay), unfractionated heparin. It counts as biochemical, human. The settings on record: 0.5 U/ml anti-Factor Xa activity. The method, then:
as §1

Turning to “AKKARAAKKARA [(AKKARA)2, XBBXBX tandem repeat peptide]”, in the test on unfractionated heparin [1], the “μg peptide/ml heparinized plasma needed to normalize thrombin time” value is >50 μg peptide/ml heparinized plasma. Besides, the “Percent Reversal of anti-Factor Xa Activity, Lovenox” value (from here on “Percent Reversal … Lovenox”) in the test on Lovenox (peptide 0.6 mg/ml in plasma) came out at 61.5%. The “heparin-binding affinity in words” value in test [2] is recorded as “weak”. Besides, the “Percent Reversal of anti-Factor Xa Activity, Orgaran” value (shortened to “Percent Reversal … Orgaran”) in the test with Orgaran (peptide 0.6 mg/ml in plasma) is listed as 37.0%. In addition, in the test on unfractionated heparin [3] (peptide 0.6 mg/ml in plasma), the “Percent Reversal of anti-Factor Xa Activity, Heparin (unfractionated)” value (“Percent Reversal … (unfractionated)” below) is given as 67.0%.
In the same order, the values of “AKKARAAKKARAAKKARAAKKARA [(AKKARA)4, XBBXBX tandem repeat peptide]” are 10 μg peptide/ml heparinized plasma, 73%, “moderate”, 75% and 99%.
With “AKKARAAKKARAAKKARAAKKARAAKKARAAKKARA [(AKKARA)6, XBBXBX tandem repeat peptide]”, the “μg peptide/ml heparinized plasma needed to normalize thrombin time” value in the test on unfractionated heparin [1] was 5 μg peptide/ml heparinized plasma. The figures for the “Percent Reversal … Lovenox” value with Lovenox (peptide 0.12 mg/ml in plasma), with Lovenox (peptide 0.4 mg/ml in plasma) and with Lovenox (peptide 0.6 mg/ml in plasma) were 86%, 86.5% and 82.5%, respectively. Further, in test [2], the “heparin-binding affinity in words” value is listed as “strong”. In addition, the “Percent Reversal … Orgaran” value turned out to be 74.5% in the test with Orgaran (peptide 0.12 mg/ml in plasma), 81.5% in the test with Orgaran (peptide 0.4 mg/ml in plasma) and 77% with Orgaran (peptide 0.6 mg/ml in plasma). For the same sequence, the “Percent Reversal … (unfractionated)” value is 99% with unfractionated heparin [3] (peptide 0.12 mg/ml in plasma), 97.5% with unfractionated heparin [3] (peptide 0.4 mg/ml in plasma) and 93% in the test with unfractionated heparin [3] (peptide 0.6 mg/ml in plasma).
Take YPARRARYQWVRCKP: in the test on unfractionated heparin [1], the “μg peptide/ml heparinized plasma needed to normalize thrombin time” value is 15 μg peptide/ml heparinized plasma. The “Percent Reversal … Lovenox” value with Lovenox (peptide 0.6 mg/ml in plasma) was 25.0%. For the same sequence, the “heparin-binding under reducing conditions in words” value in test [2] (ACE with β-ME) was “negligible heparin-binding”. Also, the “Percent Reversal … Orgaran” value with Orgaran (peptide 0.6 mg/ml in plasma) was found to be 16.5%. In addition, the “Percent Reversal … (unfractionated)” value with unfractionated heparin [3] (peptide 0.6 mg/ml in plasma) is given as 77.0%.
